The values below come from PubChem BioAssay AID1996.

Converted amounts (≈) assume the structure as drawn. Where only a bound is given, the exact number is not on record here.

For the series the following is noted: buffer; pH 7.4; 200.0 µM.
In turn, `COc1ccc(S(=O)(=O)NCCN2CCNC2=O)cc1OC` displayed a kinetic solubility of 47.9 µg/mL (≈ 145 µM).
The value for `O=C1CN(C(=O)CN2C(=O)NC(c3ccccc3)(c3ccccc3)C2=O)c2ccccc2N1` was 6.3 µg/mL (≈ 14.3 µM); that for `Fc1ccc(CCNC(=S)Nc2ccc(F)c(Cl)c2)cc1` was 23.9 µg/mL (≈ 73.1 µM).
As to `Cc1cccc2sc(NC(=O)CCNC(=O)c3ccco3)nc12`, the kinetic solubility was found to be 5.6 µg/mL (≈ 17 µM).
The value for `Cc1ccsc1C(=O)NCCc1ccc(S(N)(=O)=O)cc1` was 32.8 µg/mL (≈ 101 µM); that for `CC(C(=O)OCC(=O)c1ccccc1)N1C(=O)C2C3CCC(C3)C2C1=O` (stereo not drawn) was above 53.3 µg/mL; that for `Cc1cccc(C)c1-n1c(=O)n(Cc2ccccc2)c(=O)c2[nH]cnc21` was 20.4 µg/mL (≈ 58.9 µM).
Compound `COc1ccc(S(=O)(=O)N2CCN(C(=O)CC(C)C)CC2)cc1` showed a kinetic solubility above 51.1 µg/mL.
In turn, `CCC(CC)COC(=O)C1=C(C)NC(=O)NC1c1ccc(OC)cc1` (stereo not drawn) showed a solubility (kinetic) of 3 µg/mL (≈ 8.66 µM).
For the compound `O=C(NCc1ccccc1F)Nc1ccc([N+](=O)[O-])cc1`, the solubility (kinetic) was 1.3 µg/mL (≈ 4.49 µM).
The value for `Cc1cc(NC(=S)Nc2cccnc2)ccc1Br` was 40.7 µg/mL (≈ 126 µM).
The compound `O=C(CC1CC2CCC1C2)NCCc1ccc(Cl)cc1` (stereo not drawn) showed a kinetic solubility of 29.7 µg/mL (≈ 102 µM).
The compound `CC(=O)NC1CC2CCCC(C1)N2Cc1ccc(C)cc1` (stereo not drawn) came in with a kinetic solubility above 43 µg/mL.
Regarding `CCOc1ccccc1/C=C(\C#N)C(=O)NC1CC1`, the kinetic solubility turned out to be 31.3 µg/mL (≈ 122 µM).
For `COc1cccc(C2N(Cc3ccccc3)C(=O)C2(F)F)c1OC` (stereo not drawn), the kinetic solubility stood at 15.2 µg/mL (≈ 45.6 µM).
The compound `CC1(C(=O)O)CCC(C(=O)Nc2ccc(F)cc2)C1(C)C` (stereo not drawn) registered a solubility (kinetic) above 44 µg/mL.
The value for `Cc1ccc(CNC(=O)C2CCC(=O)N(C3CC3)C2)cc1` (stereo not drawn) was above 43 µg/mL.
Take `COC(=O)c1ccccc1NC(=O)COC(=O)/C=C/c1cccs1`: the solubility (kinetic) turned out to be 1.8 µg/mL (≈ 5.21 µM).
The value for `COc1cc([N+](=O)[O-])ccc1NC(=S)N1CCOCC1` was above 44.6 µg/mL.
`COc1ccc(/C=N/OCc2ccccc2C#N)c(OC)c1` had a kinetic solubility of 0.4 µg/mL (≈ 1.35 µM).
The value for `C[C@]12CS(=O)(=O)C[C@H]1SC(=S)N2c1ccccc1` was above 44.9 µg/mL.
`Cc1ccc(S(=O)(=O)NC2CCSC2=O)cc1C` (stereo not drawn) returned a solubility (kinetic) of 3.1 µg/mL (≈ 10.9 µM).
Under `COc1cc2c(cc1OC)CN(Cc1cc(OC)c(O)c(OC)c1)CC2` stands 47.7 µg/mL (≈ 133 µM); under `COC(=O)c1cnc(SCC(=O)c2ccccc2)n1C`, above 43.6 µg/mL; under `O=C(NCC(=O)N1CCOCC1)c1ccc(Br)cc1`, above 49.1 µg/mL.
In turn, `O=C(COC(=O)c1cccc(F)c1)NC(=O)NCc1ccccc1` gave a solubility (kinetic) of 2.4 µg/mL (≈ 7.27 µM).
Turning to `CCOc1cc(C(=S)N2CCCC2)ccc1O`, the kinetic solubility is above 37.7 µg/mL.
Under `CCNC(=S)Nc1ccc2ncoc2c1` stands above 33.2 µg/mL.
Compound `O=C(c1cccc(S(=O)(=O)N2CCN(c3ccc(F)cc3)CC2)c1)N1CCCC1` returned a kinetic solubility of 61.9 µg/mL (≈ 148 µM).
The value for `O=C(/C=C(\O)c1ccccc1)C(=O)NNC(=O)c1ccccc1` was above 46.5 µg/mL; that for `CCOc1ccc(S(=O)(=O)c2c[nH]c3ccccc3c2=O)cc1` was 1.7 µg/mL (≈ 5.16 µM).
Under `Cc1c(C(=O)O)cccc1-c1ccc(/C=C2\SC(=O)NC2=O)o1` stands above 49.4 µg/mL.
`OCC(O)CN1CCN(c2ccccc2)CC1` (stereo not drawn) yielded a kinetic solubility above 35.4 µg/mL.
Regarding `O=S(=O)(c1ccc2c(c1)CCCN2)N1CCCCC1`, the kinetic solubility was above 42.1 µg/mL.
As to `COc1ccc(NC(=O)C2CCCN(c3ncccn3)C2)cc1` (stereo not drawn), the kinetic solubility amounted to 14.5 µg/mL (≈ 46.4 µM).
Under `COc1ccc(NC(=O)CCCc2ccccc2)cc1OC` stands 29.2 µg/mL (≈ 97.5 µM).
With `Cc1cccc2cc(C#N)c(N3CCOCC3)nc12`, the kinetic solubility is 1.7 µg/mL (≈ 6.71 µM). Compared with the last compound, the solubility kinetic is about 17-fold lower.
The value for `Cc1ccc(N2CC(C(=O)NCCN3CCOCC3)CC2=O)cc1` (stereo not drawn) was above 49.7 µg/mL.
Under `CCN(CC(=O)NCc1cccs1)C(=O)c1ccc(Cl)c(Cl)c1` stands above 55.7 µg/mL.
Compound `Cc1cc(C)c2c(N)c(C(=O)Nc3ccc(F)cc3)sc2n1` came in with a kinetic solubility of 1.1 µg/mL (≈ 3.49 µM).
The value for `Cc1cccc(N2C(=O)C(Cl)=C(N3CCOCC3)C2=O)c1` was above 46 µg/mL; that for `CCN1CCN(c2nc3c(C)cccn3c(=O)c2C=C(C#N)C#N)CC1` was 51.1 µg/mL (≈ 147 µM).
The value for `Cc1ccc(SCCC(=O)Nc2cc(C)on2)cc1` was 1.3 µg/mL (≈ 4.7 µM).
Under `CC(C)N(Cc1ccccc1)C(=S)NCc1ccccc1` stands 19.4 µg/mL (≈ 65 µM); under `O=Cc1c(NCCCN2CCCC2=O)c2ccccc2[nH]c1=O`, above 47 µg/mL.
Turning to `Cc1ccc(C(=O)NCN2CCN(c3ccccc3)CC2)cc1`, the solubility (kinetic) was above 46.4 µg/mL.
`CC(C)Cn1c(=O)c2c(nc3n2CCS3)n(C)c1=O` gave a kinetic solubility above 42.1 µg/mL.
Under `COc1ccccc1-n1ccnc1SCC(=O)NCc1ccco1` stands 48.4 µg/mL (≈ 141 µM).
In the case of `O=C(c1cc2cccc([N+](=O)[O-])c2oc1=O)N1CCOCC1`, the solubility (kinetic) was found to be 40.6 µg/mL (≈ 133 µM). This solubility kinetic and that of the compound before are within 1.5-fold of each other.
The value for `O=[N+]([O-])c1ccc(Oc2ncccn2)cc1` was 28.4 µg/mL (≈ 131 µM); that for `Cc1cccc(Nc2cc(=O)n(C)c(=O)[nH]2)c1` was above 34.7 µg/mL; that for `Cc1cc(C)cc(NC(=O)[C@@H](NC(=O)c2ccco2)C(C)C)c1` was 2.8 µg/mL (≈ 8.91 µM).
Compound `COC(=O)C/C(N)=C(\C#N)C(=O)OC` had a kinetic solubility above 29.7 µg/mL.
Compound `Cc1nc2cc(NC(=O)Nc3cccc([N+](=O)[O-])c3)ccc2n1C` gave a solubility (kinetic) of 0.6 µg/mL (≈ 1.84 µM).
Regarding `Cc1cc(C)c2nc(Cl)c(C3NC(=O)c4ccccc4N3)cc2c1` (stereo not drawn), the kinetic solubility is below 0.2 µg/mL.
Under `COc1ccc(CNC(=O)Cn2ccc([N+](=O)[O-])n2)cc1OC` stands above 48 µg/mL; under `O=C(CCNC(=O)c1ccccc1)NCC1CCCCC1`, above 43.3 µg/mL.
Under `O=C(Nc1ccccc1)c1ccc(-c2ccc([N+](=O)[O-])cc2)o1` stands 7.4 µg/mL (≈ 24 µM); under `CC(C(=O)N1CCOCC1)n1cc([N+](=O)[O-])cn1` (stereo not drawn), above 38.1 µg/mL.
Regarding `COc1cccc(NC(=O)CN(C)CC(=O)NCC(=O)Nc2ccc(F)cc2)c1`, the solubility (kinetic) is above 60.4 µg/mL.
The value for `CC(N)Cc1c[nH]c2c1ccc1ccccc12.Cl` (stereo not drawn) was 33.9 µg/mL; that for `O.S=c1nc[nH]c2nc[nH]c12` was above 25.5 µg/mL.
As for `O=C(O)c1cccc(NC2=Nc3cccc4cccc2c34)c1`, the kinetic solubility amounted to 36.7 µg/mL (≈ 127 µM).
Under `Cc1ccn2cc(-c3cccc([N+](=O)[O-])c3)nc2c1` stands 5.7 µg/mL (≈ 22.5 µM).
The value for `Cc1cccc(NC(=S)N2CCCCCC2)c1C` was above 39.4 µg/mL.
Consider `CCCCNC(=O)c1cc2c(C)cc(C)cc2[nH]1`, for which the solubility (kinetic) amounted to 2.2 µg/mL (≈ 9 µM).
Turning to `O=c1c2cc([N+](=O)[O-])ccc2nc2n1CCCC2`, the kinetic solubility was above 36.8 µg/mL.
Under `COc1ccc(N)cc1NC(=O)CN1CCCC1` stands above 37.4 µg/mL; under `O=C(Cc1cccs1)NCc1ccc(Cl)cc1Cl`, 13.1 µg/mL (≈ 43.6 µM); under `CCOc1ccc2[nH]c3ncccc3c(=O)c2c1`, 3.7 µg/mL (≈ 15.4 µM).
Under `O=C1CN(C(=O)NCC(=O)N2CCCC2)c2ccccc2N1` stands above 45.3 µg/mL; under `Cl.Clc1cccc(CN2C3=NCCCN3c3ccccc32)c1`, above 50.1 µg/mL; under `O=S(=O)(c1ccccc1)N1CN(c2ccc(F)cc2F)c2nc3ccccc3nc21`, 3.8 µg/mL (≈ 8.95 µM).
The value for `COc1ccc(CCn2c(C)cc(C(=O)COC(=O)c3cnccn3)c2C)cc1` was 37.3 µg/mL (≈ 94.8 µM).
`O=C(Nc1cccnc1)c1cccc(S(=O)(=O)N2CCCC2)c1` yielded a kinetic solubility above 49.7 µg/mL.
Under `O=C(Nc1ccc(F)cc1)c1cccc(N2C(=O)c3ccccc3C2=O)c1` stands 0.7 µg/mL (≈ 1.94 µM); under `CCOC(=O)CN1C(=O)C(=O)N(Cc2c(F)cccc2Cl)C1=O`, 45.6 µg/mL (≈ 133 µM); under `C=CCn1c(NC(=O)c2ccco2)nc2ccccc21`, 21.2 µg/mL (≈ 79.3 µM).
The value for `COc1cccc(C(=O)NOCc2ccc(C)cc2)c1OC` was above 45.2 µg/mL.
`O=S(=O)(c1ccc(N2CCCC2)nc1)N1CCCC1`: the solubility (kinetic) turned out to be 36.4 µg/mL (≈ 129 µM).
The compound `O=C(O)CSc1nc2ccc(C(=O)c3ccccc3)cc2[nH]1` had a solubility (kinetic) of 44.4 µg/mL (≈ 142 µM).
`O=[N+]([O-])c1cccc(S(=O)(=O)NC2CC3CCC2C3)c1` (stereo not drawn) registered a kinetic solubility of 42.8 µg/mL (≈ 144 µM).
For `O=C(Nc1nncs1)c1cc(-c2ccco2)nc2ccccc12`, the solubility (kinetic) is above 48.4 µg/mL.
The value for `Cc1c(C(=O)Nc2nccs2)oc2ccc(Br)cc12` was 2 µg/mL (≈ 5.93 µM); that for `CC12CCC(=O)N1C(C(=O)Nc1ccc(F)cc1)CS2` (stereo not drawn) was above 44.2 µg/mL.
For `O=[N+]([O-])c1ccc(N2CCN(c3cccc(Cl)c3)CC2)nc1`, the solubility (kinetic) came to 0.4 µg/mL (≈ 1.25 µM).
The value for `COc1cccc(CNc2ccc(C(=O)O)cc2)c1OCc1ccccc1` was above 54.5 µg/mL; that for `O=C(NNC(=S)NC(=O)c1cccs1)c1cccnc1` was above 46 µg/mL.
The value for `O=[N+]([O-])c1ccc(-c2ccc(S(=O)(=O)N3CCOCC3)cc2)cc1` was below 0.4 µg/mL.
Consider `COc1ccc(C(=O)Nc2ccc3ccccc3c2)c(OC)c1`, for which the kinetic solubility was below 0.7 µg/mL.
With `COc1ccc(NC(=O)/C=C/c2cccc(C(F)(F)F)c2)cn1`, the kinetic solubility was 5.3 µg/mL (≈ 16.4 µM).
On to `CC(=O)c1ccc(S(=O)(=O)N2CCN(C(C)=O)CC2)cc1`, for which the solubility (kinetic) is above 46.6 µg/mL.
On to `Cc1ccc(SCC(=O)c2c(C)nc3cc(C)ccn23)cc1`, for which the kinetic solubility turned out to be 0.7 µg/mL (≈ 2.25 µM).
The value for `O=C(NCc1ccc2c(c1)OCO2)c1ccc(Cl)nc1` was above 43.6 µg/mL.
In turn, `Cc1ccc(C(=O)NC(=O)OCCn2c(C)cnc2[N+](=O)[O-])cc1` yielded a kinetic solubility of 48.2 µg/mL (≈ 145 µM).
The value for `CCOC(=O)NC(C)N1C(=O)C2C3C=CC(C3)C2C1=O` (stereo not drawn) was above 41.7 µg/mL; that for `O=C(O)c1ccc(NC(=O)c2ccccc2NC(=O)c2cccc(F)c2)cc1` was above 56.8 µg/mL; that for `CCCc1cc(C(=O)N2CCCN(C)CC2)cs1` was above 40 µg/mL.
With `CCOC(=O)c1c(C)n(Cc2ccc(F)cc2)c2ccc(O)cc12`, the kinetic solubility was below 0.7 µg/mL.
Under `CCC1(CC)Cc2ccccc2-c2nc(NCCCO)[nH]c(=O)c21` stands 42 µg/mL (≈ 128 µM); under `Cc1ccc(C(=O)Nc2ccncc2)cc1[N+](=O)[O-]`, above 38.6 µg/mL; under `N#Cc1cc(Nc2c(N)nc[nH]c2=O)c([N+](=O)[O-])cc1C#N`, above 44.6 µg/mL.
Under `CCN(CC)c1ccc(CNCCc2ccc(F)cc2)cc1.Cl` stands above 50.5 µg/mL.

What is called solubility (kinetic) is solubility judged after dilution from a stock solution rather than from solid.
